Laboratory results reported in article PMC11079029, “Intramolecular autoinhibition regulates the selectivity of PRPF40A tandem WW domains for proline-rich motifs” (Nature Communications, 2024).
Where two headings read alike, the source gives them in different places. No end group written: not given here.

Target: T1, PRPF40A WW12 (tandem WW domains, residues 141–236) (Homo sapiens, UniProt O75400)
T1 construct: WW12 141–236, WW12long 141–248, and N-ext-WW12 56–236; 6xHis-TEV site (N, cleaved yes); made in house; host or cells: Escherichia coli BL21(DE3)
Assay: ITC of PRPF40A WW12 with GB1-tagged proline-rich peptides and constructs
Format: binding
Conditions: for N (sites): ITC as E1, peptide in the cell, N >1 = more than one WW tandem per peptide; for DH: ITC binding enthalpy; for Kd: ITC
Source text: PRPF40A isoform 1 sequences (N-ter 1–310, WW12short 141–223, WW12 141–236, WW12long 141–248, and N-ext-WW12 56–236) were amplified from a purchased DNA fragment (IDT) and cloned using NcoI and KpnI restriction sites into a pETM11 vector encoding 6xHis and TEV cleavage site as a N-terminal tag. SF1 (Pro A 410–468, Pro B 468–539, Pro C 539–594, Pro D 594–639, Pro BC 468–594, Pro CD 539–639, Pro BCD 468–639 and Pro ABCD 410–639) and SF3A1 (Middle Pro 364–413 and C-ter Pro 552–683) constructs were prepared in a similar manner using a pET24 vector with a 6xHis, GB1 and TEV cleavage site as N-terminal fusion cassette. 16-mer SF1 constructs (Table 1) and polyproline peptides (P6, P8, P10, P13, P16, P19, P22, P25, and P29) were cloned in the same pET24 vector with GB1 tag by direct ligation of purchased oligonucleotides (Eurofins). All peptide sequences contained N and C-terminal common residues to avoid boundary effects on binding: TEVsite-GAMSGS-peptide-SGSN. Mutants of PRPF40A WW12 and N-ext-WW12 constructs were prepared by site-directed mutagenesis. The truncated version of PRPF40A WW12 (141-217) was a gift from Dr. María Macías (IRB, Spain). All used oligonucleotides were purchased from Eurofins Genomics and are shown in Supplementary Table 6.
Resuspended cell pellets in 20 mM Tris pH 8.0, 500 mM NaCl, 10 mM imidazole, 0.5 mM TCEP, and protease inhibitors mix (SERVA) were lysed by cell disruption in a French press. Clear lysates, after centrifugation (at 18,000 g) and filtering, were loaded into Ni-NTA resin. The resin was then washed with 20 mM imidazole containing buffer, and the desired protein was eluted with 500 mM imidazole. PRPF40A constructs were then subjected to TEV protease treatment (homemade at a final concentration of ≈50 μg/ml), dialyzed overnight at 4 °C against an imidazole-free buffer, and then loaded again to Ni-NTA resin; desired digested proteins were obtained in the flow-through and wash fractions while uncleaved protein, TEV protease, and impurities remained bound to the resin. Cleaved PRPF40A proteins and GB1-tagged SF1, SF3A1, and polyproline constructs were further purified by size-exclusion chromatography on a HiLoad 16/60 Superdex 75 column (GE Healthcare) equilibrated with 20 mM sodium phosphate, pH 6.5, 100 mM NaCl and 1 mM DTT buffer. For the purification of PRPF40A WW12 in complex with SF1 peptide, cell pellets of recombinant expression for both proteins were mixed and processed together following the Ni-NTA—TEV digestion—reverse Ni-NTA—SEC-75 protocol; where the complex remained bound in a 1:1 stoichiometry throughout the whole purification (corroborated by NMR). Molecular weight of each sample was confirmed by mass spectrometry, purity was checked by PAGE-SDS, and protein concentrations were determined from the aromatic contribution to the UV absorbance spectra at 280 nm.
Experiments were conducted on a MicroCAl PEAQ-ITC (Malvern Instruments, UK) at 25 °C in 20 mM sodium phosphate pH 6.5 and 100 mM NaCl. PRPF40A was titrated into N-terminal GB1 tagged SF1 or polyproline constructs and vice versa with similar results. Protein concentrations in the cell were around 20–40 μM, while in the syringe ranged between 200 and 500 μM. Experiments were performed at least in duplicate with injections of 1.5 μL (0.4 μL for first point) separated by 150 s delays to recover thermal power baseline and continuous stirring in the cell (750 rpm) for correct mixing. The reference cell was filled with water in all experiments. Data were processed by removing the blank experiment (using digested GB1 fusion protein) and adjusted to one-site binding model with Malvern PEAQ-ITC Analysis software (Malvern Instruments, UK).

[1] = 25 °C, 20 mM sodium phosphate pH 6.5, 100 mM NaCl, GB1-tagged polyproline or SF1 16-mer peptide in the cell, WW tandem in the syringe, one-site model, apparent Kd, average of at least duplicates, read-out: Kd
[2] = SF1 peptides, individual value 1 (replicate 1), read-out: Kd Values with WW12, individual value
[3] = SF1 peptides, individual value 2 (replicate 2), read-out: Kd Values with WW12, individual value
[4] = SF1 peptides, individual value 3 (replicate 3), read-out: Kd Values with WW12, individual value

T1 sequence (O75400 141-236): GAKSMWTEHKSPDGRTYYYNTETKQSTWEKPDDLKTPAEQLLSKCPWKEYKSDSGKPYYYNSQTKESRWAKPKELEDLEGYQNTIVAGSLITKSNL

Row | Substance | N (sites) (WW tandem in the syringe) | DH (as E1) [kcal/mol] | also measured
1 | MPPFGMPPAPPPPPPQ [SF1_623–638, GB1-tagged 16-mer from the SF1 C-terminal region] | 0.95 ± 0.10 | -10.7 ± 3.54 | Kd [1]: 23.3 ± 13.3 µM; Kd [2]: 21.8 µM; Kd [3]: 24.8 µM
2 | MPPPPPPPSGQPPPPP [SF1_478–493, GB1-tagged 16-mer from the SF1 C-terminal region] | 0.80 ± 0.11 | -14.3 ± 0.956 | Kd [1]: 9.59 ± 0.9 µM; Kd [2]: 8.26 µM; Kd [3]: 10.3 µM; Kd [4]: 10.2 µM
3 | MQPPPPPMNQGPHPPG [SF1_425–440, GB1-tagged 16-mer from the SF1 C-terminal region] | 0.87 ± 0.07 | -13.3 ± 1.41 | Kd [1]: 20.2 ± 3.1 µM; Kd [2]: 15.9 µM; Kd [3]: 21.8 µM; Kd [4]: 22.9 µM
4 | MYAPPPPPPPPMDPSN [SF1_596–611, GB1-tagged 16-mer from the SF1 C-terminal region] | 1.10 ± 0.30 | -10.9 ± 8.8 | Kd [1]: 65.9 ± 50.7 µM
5 | P10: recombinant GB1-tagged polyproline peptide, 10 prolines (GB1-GAMSGSPPPPPPPPPPSGSN; not fully specified) | 0.89 ± 0.11 | -9.63 ± 1.24 | 
6 | P13: recombinant GB1-tagged polyproline peptide, 13 prolines (GB1-GAMSGSPPPPPPPPPPPPPSGSN; not fully specified) | 0.78 ± 0.07 | -15.7 ± 1.54 | 
7 | P16: recombinant GB1-tagged polyproline peptide, 16 consecutive proline residues (GB1-GAMSGSPPPPPPPPPPPPPPPPSGSN; also: His6 tag state not given here) | 0.88 ± 0.08 | -15.2 ± 0.621 | 
8 | P19: recombinant GB1-tagged polyproline peptide, 19 prolines (GB1-GAMSGSPPPPPPPPPPPPPPPPPPPSGSN; also: His6 tag state not given here) | 1.10 ± 0.04 | -18.2 ± 0.837 | 
9 | P22: recombinant GB1-tagged polyproline peptide, 22 prolines (GB1-GAMSGSPPPPPPPPPPPPPPPPPPPPPPSGSN; also: His6 tag state not given here) | 1.39 ± 0.03 | -18.6 ± 0.574 | 
10 | P25: recombinant GB1-tagged polyproline peptide, 25 prolines (GB1-GAMSGSPPPPPPPPPPPPPPPPPPPPPPPPPSGSN; also: His6 tag state not given here) | 2.30 ± 0.09 | -16.6 ± 0.645 | 
11 | P29: recombinant GB1-tagged polyproline peptide, 29 prolines (GB1-GAMSGSPPPPPPPPPPPPPPPPPPPPPPPPPPPPPSGSN; also: His6 tag state not given here) | 2.47 ± 0.09 | -15.8 ± 0.502 | 
12 | SF1 Pro A: GB1-tagged SF1 construct, residues 410–468 (GB1-GHPMQHNPNGPPPPWMQPPPPPMNQGPHPPGHHGPPPMDQYLGSTPVGSGVYRLHQGKG; also: His6 tag state not given here) |  |  | DH (as E4): -15.1 ± 3.54 kcal/mol
13 | SF1 Pro C: GB1-tagged SF1 construct, residues 539–594, contains the WWbs 16-mer (GB1-GSIPPWQQQQAAAAASPGAPQMQGNPTMVPLPPGVQPPLPPGAPPPPPPPPPGSAG; also: His6 tag state not given here) |  |  | DH (as E4): -20.6 ± 0.22 kcal/mol
14 | SF1 Pro D: GB1-tagged SF1 construct, residues 594–639 (GB1-GMMYAPPPPPPPPMDPSNFVTMMGMGVAGMPPFGMPPAPPPPPPQN; also: His6 tag state not given here) |  |  | DH (as E4): -16 ± 4.52 kcal/mol
15 | SF3A1 Middle Pro: GB1-tagged SF3A1 construct, residues 364–413, contains a PPLP motif (GB1-EGQKVPPPPETPMPPPLPPTPDQVIVRKDYDPKASKPLPPAPAPDEYLVS; also: His6 tag state not given here) |  |  | DH (as E4): -27.25 ± 6.48 kcal/mol
16 | TMVPLPPGVQPPLPPG [SF1_565–580, GB1-tagged 16-mer from the SF1 C-terminal region] | 1.06 ± 0.11 | -13.5 ± 1.96 | Kd [2]: 24 µM; Kd [3]: 37.8 µM; Kd [4]: 23.4 µM; Kd (SF1 peptides, individual value 4 (replicate 4), read-out: Kd Values with WW12, individual value): 36.5 µM
